From patent US9714236B2, “Compounds and methods for inhibiting JAK” (AstraZeneca AB, priority 2015, dated 2017)

Key:
Type in all cases: biochemical
[1] = molecular target: recombinant JAK1 (amino acids 866-1154) (Homo sapiens (Human), UniProt P23458); assay: Enzyme inhibition studies, JAK1 (peptide phosphorylation, Caliper LC3000); details: ATP concentration not given (assayed at ATP Km 55 μM and at 5 mM)
Procedure: (§1) Enzyme inhibition studies were performed using recombinant JAK1 (amino acids 866-1154, Life Technologies, #PV4774, Carlsbad, Calif.), JAK2 (amino acids 831-1132), or JAK3 (amino acids 781-1124) under buffer conditions of 50 mM HEPES pH 7.3, 1 mM DTT, 0.01% Tween® 20, 50 μg/mL BSA, and 10 mM MgCl2. JAK enzyme was expressed as an N-terminal GST fusion in insect cells and purified by glutathione-affinity and size-exclusion chromatographies. […] Phosphorylated and unphosphorylated peptides were separated and quantified by a Caliper LC3000 system (Caliper Life Sciences, MA) for calculating percent inhibition.

[2] = molecular target: recombinant JAK2 (amino acids 831-1132) (Homo sapiens (Human), UniProt O60674); assay: Enzyme inhibition studies, JAK2 (peptide phosphorylation, Caliper LC3000); details: ATP concentration of the tabulated values not stated (assayed at ATP Km 15 μM and at 5 mM)
recombinant JAK2 (amino acids 831-1132), sequence (O60674 831-1132): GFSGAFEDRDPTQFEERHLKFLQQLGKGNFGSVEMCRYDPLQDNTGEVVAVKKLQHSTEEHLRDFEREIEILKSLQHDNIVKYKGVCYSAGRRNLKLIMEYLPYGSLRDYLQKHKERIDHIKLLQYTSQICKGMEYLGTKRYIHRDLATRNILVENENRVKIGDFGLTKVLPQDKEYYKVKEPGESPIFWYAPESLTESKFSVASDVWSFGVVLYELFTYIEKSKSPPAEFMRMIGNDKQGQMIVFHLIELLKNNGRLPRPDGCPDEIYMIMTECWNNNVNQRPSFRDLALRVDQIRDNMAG
Procedure: as §1

[3] = molecular target: recombinant JAK3 (amino acids 781-1124) (Homo sapiens (Human), UniProt P52333); assay: Enzyme inhibition studies, JAK3 (peptide phosphorylation, Caliper LC3000); details: ATP concentration of the tabulated values not stated (assayed at ATP Km 3 μM and at 5 mM)
recombinant JAK3 (amino acids 781-1124), sequence (P52333 781-1124): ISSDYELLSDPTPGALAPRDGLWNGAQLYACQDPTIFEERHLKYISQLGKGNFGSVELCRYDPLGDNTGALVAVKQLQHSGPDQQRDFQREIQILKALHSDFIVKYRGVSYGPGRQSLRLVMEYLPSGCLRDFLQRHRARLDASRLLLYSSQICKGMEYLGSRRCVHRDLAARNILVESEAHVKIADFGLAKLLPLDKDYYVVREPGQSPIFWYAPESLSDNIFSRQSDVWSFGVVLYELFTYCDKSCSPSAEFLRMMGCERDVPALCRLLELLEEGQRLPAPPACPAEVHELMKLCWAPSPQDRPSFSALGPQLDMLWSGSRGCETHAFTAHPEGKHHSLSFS
Procedure: as §1

recombinant JAK1 (amino acids 866-1154), sequence (P23458 866-1154): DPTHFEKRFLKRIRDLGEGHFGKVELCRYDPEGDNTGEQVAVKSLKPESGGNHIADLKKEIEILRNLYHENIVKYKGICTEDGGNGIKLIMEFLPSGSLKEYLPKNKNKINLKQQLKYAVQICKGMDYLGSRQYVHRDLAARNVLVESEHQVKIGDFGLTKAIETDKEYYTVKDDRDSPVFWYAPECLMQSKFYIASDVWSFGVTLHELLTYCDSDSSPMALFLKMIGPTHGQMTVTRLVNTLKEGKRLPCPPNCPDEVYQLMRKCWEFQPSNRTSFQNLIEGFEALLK

Structure (SMILES)	IC50 [1]	IC50 [2]	IC50 [3]
COc1nn(C)cc1Nc1ncc(F)c(-c2c[nH]c3c(NC(=O)[C@@H](C)N4CCN(C)[C@H](C)C4)cccc23)n1 [Example 2, (2R)-2-[(3R)-3,4-dimethylpiperazin-1-yl]-N-(3-{5-fluoro-2-[(3-methoxy-1-methyl-1H-pyrazol-4-yl)amino]pyrimidin-4-yl}-1H-indol-7-yl)propanamide]	85 nM	12.8 µM	> 30 µM
COc1nn(C)cc1Nc1ncc(F)c(-c2c[nH]c3c(NC(=O)[C@@H](C)N4CCN(C)[C@@H](C)C4)cccc23)n1 [Example 5, (2R)-2-[(3S)-3,4-dimethylpiperazin-1-yl]-N-(3-{5-fluoro-2-[(3-methoxy-1-methyl-1H-pyrazol-4-yl)amino]pyrimidin-4-yl}-1H-indol-7-yl)propanamide]	24 nM	10.4 µM	> 30 µM
COc1nn(C)cc1Nc1nccc(-c2c[nH]c3c(NC(=O)[C@@H](C)N4CCN(C)C[C@@H]4C)cccc23)n1 [Example 1, (2R)-2-[(2S)-2,4-dimethylpiperazin-1-yl]-N-(3-{2-[(3-methoxy-1-methyl-1H-pyrazol-4-yl)amino]pyrimidin-4-yl}-1H-indol-7-yl)propanamide]	847 nM		
COCCN1CCN([C@H](C)C(=O)Nc2cccc3c(-c4nc(Nc5cn(C)nc5OC)ncc4F)c[nH]c23)CC1 [Example 3, (2R)-N-(3-{5-fluoro-2-[(3-methoxy-1-methyl-1H-pyrazol-4-yl)amino]pyrimidin-4-yl}-1H-indol-7-yl)-2-[4-(2-methoxyethyl)piperazin-1-yl]propanamide]	191 nM	26.8 µM	> 30 µM
CCOc1nn(C)cc1Nc1ncc(F)c(-c2c[nH]c3c(NC(=O)[C@@H](C)N4CCN(CC)CC4)cccc23)n1 [Example 8, (2R)-N-(3-{2-[(3-ethoxy-1-methyl-1H-pyrazol-4-yl)amino]-5-fluoropyrimidin-4-yl}-1H-indol-7-yl)-2-(4-ethylpiperazin-1-yl)propanamide]	110 nM	23.6 µM	> 30 µM
CCOc1nn(C)cc1Nc1ncc(F)c(-c2c[nH]c3c(NC(=O)[C@@H](C)N4CCN(C)CC4)cccc23)n1 [Example 39, (2R)-N-(3-{2-[(3-ethoxy-1-methyl-1H-pyrazol-4-yl)amino]-5-fluoropyrimidin-4-yl}-1H-indol-7-yl)-2-(4-methylpiperazin-1-yl)propanamide]	55 nM	25.5 µM	> 30 µM
COc1nn(C)cc1Nc1ncc(F)c(-c2c[nH]c3c(NC(=O)[C@@H](C)N4CCN(C)CC4)cccc23)n1 [Example 25, (2R)-N-(3-{5-Fluoro-2-[(3-methoxy-1-methyl-1H-pyrazol-4-yl)amino]pyrimidin-4-yl}-1H-indol-7-yl)-2-(4-methylpiperazin-1-yl)propanamide]	19 nM	6.62 µM	> 30 µM
CCOc1nn(C)cc1Nc1ncc(Cl)c(-c2c[nH]c3c(NC(=O)[C@@H](C)N4CCN(C)CC4)cccc23)n1 [Example 40, (2R)-N-(3-{5-chloro-2-[(3-ethoxy-1-methyl-1H-pyrazol-4-yl)amino]pyrimidin-4-yl}-1H-indol-7-yl)-2-(4-methylpiperazin-1-yl)propanamide]	24 nM	8.93 µM	> 30 µM
CC[C@H](C(=O)Nc1cccc2c(-c3nc(Nc4cn(C)nc4OC)ncc3C)c[nH]c12)N1CCN(C)CC1 [Example 44, (2R)-N-(3-{2-[(3-Methoxy-1-methyl-1H-pyrazol-4-yl)amino]-5-methylpyrimidin-4-yl}-1H-indol-7-yl)-2-(4-methylpiperazin-1-yl)butanamide]	< 4 nM	1.95 µM	> 30 µM
CC[C@@H](C(=O)Nc1cccc2c(-c3nc(Nc4cn(C)nc4OC)ncc3F)c[nH]c12)N1CCN(C)CC1 [Example 52, (2S)-N-(3-{5-fluoro-2-[(3-methoxy-1-methyl-1H-pyrazol-4-yl)amino]pyrimidin-4-yl}-1H-indol-7-yl)-2-(4-methylpiperazin-1-yl)butanamide]	296 nM		
CC[C@H](C(=O)Nc1cccc2c(-c3nc(Nc4cn(C)nc4OC)ncc3F)c[nH]c12)N1CCN(C)CC1 [Example 51, (2R)-N-(3-{5-fluoro-2-[(3-methoxy-1-methyl-1H-pyrazol-4-yl)amino]pyrimidin-4-yl}-1H-indol-7-yl)-2-(4-methylpiperazin-1-yl)butanamide]	< 3 nM		

More lines, now with the values ahead:

IC50 [1]	IC50 [2]	IC50 [3]	Structure (SMILES)
30 nM	9.62 µM	> 30 µM	COc1nn(C)cc1Nc1ncc(F)c(-c2c[nH]c3c(NC(=O)[C@@H](C)N4CCN(C)C[C@H]4C)cccc23)n1 [Example 6]
29 nM	25.7 µM	> 30 µM	CCOc1nn(C)cc1Nc1ncc(C)c(-c2c[nH]c3c(NC(=O)[C@@H](C)N4CCN(C)C[C@H]4C)cccc23)n1 [Example 23, (2R)-2-[(2R)-2,4-dimethylpiperazin-1-yl]-N-(3-{2-[(3-ethoxy-1-methyl-1H-pyrazol-4-yl)amino]-5-methylpyrimidin-4-yl}-1H-indol-7-yl)propanamide]
51 nM	17.2 µM	> 30 µM	CCOc1nn(C)cc1Nc1ncc(C)c(-c2c[nH]c3c(NC(=O)[C@@H](C)N4CCN(CC)CC4)cccc23)n1 [Example 20, (2R)-N-(3-{2-[(3-ethoxy-1-methyl-1H-pyrazol-4-yl)amino]-5-methylpyrimidin-4-yl}-1H-indol-7-yl)-2-(4-ethylpiperazin-1-yl)propanamide]
846 nM			CCOc1nn(C)cc1Nc1ncc(F)c(-c2c[nH]c3c(NC(=O)[C@@H](C)N4CCN(C)C[C@@H]4C)cccc23)n1 [Example 10a, (2R)-2-[(2S)-2,4-dimethylpiperazin-1-yl]-N-(3-{2-[(3-ethoxy-1-methyl-1H-pyrazol-4-yl)amino]-5-fluoropyrimidin-4-yl}-1H-indol-7-yl)propanamide]
454 nM	> 30 µM	> 30 µM	CCOc1nn(C)cc1Nc1ncc(C)c(-c2c[nH]c3c(NC(=O)[C@H](C)N4CCN(C)[C@@H](C)C4)cccc23)n1 [Example 31b, (2S)-2-[(3S)-3,4-dimethylpiperazin-1-yl]-N-(3-{2-[(3-ethoxy-1-methyl-1H-pyrazol-4-yl)amino]-5-methylpyrimidin-4-yl}-1H-indol-7-yl)propanamide]
7600 nM			CCOc1nn(C)cc1Nc1ncc(F)c(-c2c[nH]c3c(NC(=O)[C@H](C)N4CCN(C)C[C@@H]4C)cccc23)n1 [Example 10b, (2S)-2-[(2S)-2,4-dimethylpiperazin-1-yl]-N-(3-{2-[(3-ethoxy-1-methyl-1H-pyrazol-4-yl)amino]-5-fluoropyrimidin-4-yl}-1H-indol-7-yl)propanamide]
68 nM			CCOc1nn(C)cc1Nc1ncc(F)c(-c2c[nH]c3c(NC(=O)[C@@H](C)N4CCN(C)C[C@H]4C)cccc23)n1 [Example 12, (2R)-2-[(2R)-2,4-dimethylpiperazin-1-yl]-N-(3-{2-[(3-ethoxy-1-methyl-1H-pyrazol-4-yl)amino]-5-fluoropyrimidin-4-yl}-1H-indol-7-yl)propanamide]
97 nM			COc1nn(C)cc1Nc1nccc(-c2c[nH]c3c(NC(=O)[C@@H](C)N4CCN(C)C[C@H]4C)cccc23)n1 [Example 29, (2R)-2-[(2R)-2,4-dimethylpiperazin-1-yl]-N-(3-{2-[(3-methoxy-1-methyl-1H-pyrazol-4-yl)amino]pyrimidin-4-yl}-1H-indol-7-yl)propanamide]
